For data set [1] the following is noted: maximal effective therapeutic plasma concentration; ref Redfern et al. (2003) Cardiovasc. Res. 58:32-45; cited from earlier work.
Data set [2] relates to Cytiva hSCCMs. In words: SALVO profiling of drug-evoked Ca2+ signal perturbation (fluo-4 confocal imaging). Particulars: for EC20 AHI: 20% change from control in amplitude heterogeneity index; for EC20 AHI / EC20 Synch / EC20 ITN / EC20 THI / EC20 Rate: regression of Figure 3 data; for EC20 Synch: 20% change from control in intercellular synchronization; for EC20 ITN: 20% change from control in intertransient noise; for EC20 THI: 20% change from control in temporal heterogeneity index; for EC20 Rate: drug concentration producing a 20% change from control (no drug) in Ca2+ oscillation rate; for SALVO toxicity score, rank order of the extent of Ca2+ perturbation: five-parameter SALVO output integrated over 0.1-1000 nM, normalized to control; for Effect on Ca2+ handling (SALVO parameters): spontaneously oscillating Cytiva, concentrations up to 30 µM. The text has this: Cytiva hSCCMs were derived from monolayer differentiation of an H7 hESC cell line that had been expanded under feeder-free conditions and then subjected to a proprietary differentiation protocol (GE Healthcare, Piscataway, NJ, USA).[13] […] Cells were thawed and seeded into 7-mm^2 chambers created by the adherence of silicon gaskets (CultureWell MultiWell 3 mm in diameter, 1-mm-depth inserts [Life Technologies]) on glass-bottomed culture chambers (In Vitro Scientific, Sunnyvale, CA, USA) that had been precoated with Matrigel (BD Biosciences, Franklin Lakes, NJ, USA), Franklin Lakes, NJ, USA diluted 1:30 (v/v) in Knockout DMEM (Life Technologies, Carlsbad, CA, USA). […] Cells were allowed to adhere to the coverslip for 2 h before the dish was filled with RPMI/B27 (2 mL). Medium was exchanged every 48 h.
Cells were incubated with fluo-4 AM (5 µM) (Life Technologies) for 1 h at 37°C before coverslips were flooded with RPMI/B27 (2 mL). […] Cells were maintained at 37 °C throughout experiments. […] The application of caffeine (5 mM final concentration) was used to trigger sarcoplasmic reticulum (SR) Ca^2+ release and thereby estimate the intra-SR Ca^2+ store load.
Taking our lead from Uhlen’s method of using spectral analysis to investigate the organization of Ca^2+ signals,[14] we developed SALVO to decode the spatiotemporal patterning of Ca^2+ oscillations within individual cells and across multicellular populations. SALVO outputs 30 parameters that describe Ca^2+ signal organization,[15] but for the purposes of this study, we focused on five parameters: oscillation rate (rate, Hz) and four other parameters that quantify the amplitude and temporal patterning of Ca^2+ oscillation: (1) amplitude heterogeneity index (AHI) and (2) temporal heterogeneity index (THI), statistical assessments of signal amplitude and temporal variability within single cells, respectively; (3) intertransient noise (ITN), defined as the Ca^2+ signal variability occurring between Ca^2+ oscillations and that extends the use of signal variability (SV) to measure point-by-point differences in very low-amplitude Ca^2+ signals[6],[10],[12]; and (4) synchronization, an index of the temporal coincidence of Ca^2+ oscillation maxima occurring across cells in the population. The calculation of these parameters is described in Supplementary Figure S1. SALVO is implemented using a Python-based computer program.[15] The detection of signal maxima and minima over a 30-s period in data obtained from 6 to 20 cells in each instance was performed using SALVO’s autodetection algorithms (based on spline detect or threshold detection methods) or by manual assignation of the start, peak, and end of each Ca^2+ spike. SALVO outputs were archived and interrogated using a custom-built SQL-based database system (DB Miner, CHG, NCS, SBJ).
Baseline assessments of Ca^2+ signals in fluo-4–loaded cells prior to the addition of drug (control) were established as described above.
After each addition and following a period of equilibration (approximately 90 s), fluo-4–dependent Ca^2+ signals were acquired for 30 s. Using this protocol, the same population of cells was imaged throughout the entire drug addition sequence.
In all experiments, operators were blinded to the identities of the drugs under test throughout all phases of postexperimental data analysis.
Supplementary Table 2. EC20 values for Ca2+ perturbation.
Drug concentrations (nM) that produced a 20% change from control values (no drug) were calculated for each SALVO parameter from regression analysis of […]
The effective therapeutic plasma concentration of free drug (ETPCunbound, nM) was calculated in Supplementary Table 1.
Calculate percentage effect size (E) for each SALVO parameter, normalized to Ew = E x λ control conditions, at each drug concentration Effect size (E,%) λ
Cumulative Ew for drug concentrations of 0.1, 1, 10, 100 and 1000 nM for The relationship between E and λ is given by […]

For data set [3] the following is noted: categories assigned by Redfern and colleagues; cited from earlier work.
Details of data set [4]: method as in DrugBank (www.drugbank.ca). Particulars: from drug-protein binding values; ref DrugBank (www.drugbank.ca); cited from earlier work.
In data set [5] the test system is Cytiva hSCCMs. Briefly: Whole-cell current-clamp recording of spontaneous action potentials (APD90). In kind it is cell-based, human. Conditions: drug at EC20 concentration, 3 min; Fridericia-corrected; blebbistatin-immobilized cells. As to the method: Cells in 35-mm glass-bottomed culture dishes containing a superfusion insert (AutoMate PCP-1; Digitimer Ltd., Welwyn Garden City, UK) were mounted on the stage of an inverted microscope (CKX-41; Olympus, Tokyo, Japan) and were superfused with normal Tyrode (NT) solution (containing [in mM] NaCl, KCl, MgCl2 [1], CaCl2 [2], HEPES [10], glucose; pH 7.4 with NaOH) or NT-containing drugs maintained at 37 °C using a heated jacket.
Cells were whole-cell clamped with 3- to 4-MΩ patches and an intrapipette solution (containing in [mM] KCl, MgCl2 [1.75], CaCl2 [5.37], EGTA [10], HEPES [10], and Na2ATP [4]; pH 7.2 with KOH) in current-clamp (IC) mode using a CV-7B headstage and MultiClamp 700B amplifier controlled by MultiClamp software (Molecular Devices, Sunnyvale, CA). Data were digitized and acquired using a Digidata 1322a card and pClamp software, respectively (Molecular Devices). Action potentials were sampled at a rate of 20 kHz and low pass (Bessel) filtered at 10 kHz.
Spontaneous cell contracture was terminated using blebbistatin (5 µM, 10 min), an agent that inhibits myofilament shortening and thereby negates patch-clamp recording instability but preserves normal Ca^2+ cycling.[20] […] Action potential (AP) recordings from blebbistatin-immobilized cells were taken under control (no-drug) conditions (1 min) and following the switch to drug-containing NT. APD90, corrected for AP cycle length using Fridericia’s method (APD90(corr) = APD90/cycle length^[…]), was calculated from five consecutive APs following a 3-min exposure of the cells to drug.
Figure 4. Investigating the effect of cardiovascular-active drugs on Cytiva APD90. (A) Cells were exposed to drugs at EC20 concentrations for 3 min (Suppl. Table S2). APD90 values were corrected for beat period using Fridericia’s algorithm. Data points represent individual paired experiments (n = 6). Representative control (gray) and drug-treated (black) action potential traces are shown. (B) APD90 plotted as the percentage change relative to the paired control value (no drug). *p < 0.05. **p < 0.01.

Data set [6] is described as follows: Effective therapeutic plasma concentration (ETPC, ETPCunbound). In kind it is in vivo, human. The source says: There is also the issue regarding the relevance of drug potency determined in vitro to clinical dosing in humans. Guo and colleagues[25],[27] used an impedance-derived index of arrhythmic beating in hSCCMs to derive a predicted proarrhythmic score (PPS) that took into account the therapeutically relevant total concentration of drug in human plasma (defined as Ceff). More recently, Clements and Thomas[13] used a similar approach to generate a predictive risk score (PRS) based on their measurement of field potential duration (FPD) in Cytiva.
Supplementary Table 1. Calculating the free plasma concentration of […]
described by Redfern et al. (Redfern et al. (2003) Cardiovasc. Res. 58:32-45) was used to calculate the levels of free drug (ETPCunbound). ETPC for nadolol and valdecoxib were from Krukemyer et al. (Pharm. Res. (1990) 9:953-956) and Yuan et al. (Drug Metab. Disp. (2002) 30:1013-1021), respectively. The values for drug-protein binding were obtained from DrugBank (www.drugbank.ca).

The test system of the next data set is hSCCM. More on the design: method as in PMID 24052561. Conditions: cited from earlier work.
The mark [7] stands for this setting: free plasma concentration calculated from ETPC and free drug %, Supplementary Table 1.

Regarding `COc1ccc(CCN2CCC(Nc3nc4ccccc4n3Cc3ccc(F)cc3)CC2)cc1` [Astemizole, astemizole], the ETPC in data set [1] is on record as 8 nM. Also, in the data set with Cytiva hSCCMs [2], the “EC20 AHI” value was determined as 100 nM, the “EC20 Synch” value is 15 nM, the “EC20 ITN” value is 320 nM and the “EC20 THI” value is reported as 55 nM. Besides, in the data set with Cytiva hSCCMs [2], the “EC20 Rate” value is on record as 50 nM; the “SALVO toxicity score, rank order of the extent of Ca2+ perturbation” value was “astemizole > thioridazine > cisapride > flecainide > valdecoxib > sotalol > nadolol”; the “Effect on Ca2+ handling (SALVO parameters)” value (from here on “Effect on Ca2+ handling”) was “large effect sizes in multiple parameters”. In addition, the “Predicted proarrhythmic score (PPS)” value with Cytiva hSCCMs [2] (PPS = ETPCunbound/EC20) is recorded as under 1. Moreover, in data set [3], the TdP risk category entry was “category 2”. Besides, the Free drug in data set [4] is 2%. In addition, the “Effect on APD90 (action potential duration)” value with Cytiva hSCCMs [5] was “increased APD90”. Moreover, the ETPCunbound in data set [6] (effective therapeutic plasma concentration of free drug, as listed in Supplementary Table 2) worked out at 8 nM. Besides, in data set [6] (setting [7]), the ETPCunbound is 0.2 nM.
As to `COc1cc(N)c(Cl)cc1C(=O)NC1CCN(CCCOc2ccc(F)cc2)CC1OC` (centres unmarked) [Cisapride, cisapride], the ETPC in data set [1] was 129 nM. In addition, in the data set with Cytiva hSCCMs [2], the “EC20 AHI” value is listed as 40 nM, the “EC20 Synch” value was determined as 5 nM, the “EC20 ITN” value is over 30000 nM and the “EC20 THI” value turned out to be 105 nM. Moreover, in the data set on Cytiva hSCCMs [2], the “EC20 Rate” value was determined as 445 nM; the “SALVO toxicity score, rank order of the extent of Ca2+ perturbation” value was “astemizole > thioridazine > cisapride > flecainide > valdecoxib > sotalol > nadolol”; the “Effect on Ca2+ handling” value is given as “large effect sizes in multiple parameters”. Also, the PPS rank order result in the data set on Cytiva hSCCMs [2] (PPS = ETPCunbound/EC20) is on record as “thioridazine > cisapride > valdecoxib”. Moreover, the TdP risk category result in data set [3] is “category 2”. Moreover, the Free drug in data set [4] is listed as 2%. Also, in the data set on Cytiva hSCCMs [5], the “Effect on APD90 (action potential duration)” value was “increased APD90”. For the same molecule, the ETPCunbound in data set [6] (setting [7]) is 3 nM.
`CS(=O)(=O)c1ccc(C2=C(c3ccccc3)C(=O)OC2)cc1` [rofecoxib]: the “Hazard identification by impedance measurements” value with hSCCM is listed as “failed to identify the potential hazard”. Moreover, in the data set with Cytiva hSCCMs [2], the “Effect on Ca2+ handling” value is given as “inconsistent bioactivity”.

Values taken from paper PMC4361473, “A New System for Profiling Drug-Induced Calcium Signal Perturbation in Human Embryonic Stem Cell–Derived Cardiomyocytes” (Journal of Biomolecular Screening, 2015).
